Key:
[1] = Metabolite identification by UPLC/Triple TOF MS in human liver microsomes; format: in vitro ADME; set-up: key: √: metabolites were detected by high-resolution mass spectrometry; details: Compound-3 10 μM, 1 mg/mL microsomes, NADPH, 60 min, HRMS
Protocol: (§1) For metabolite identification, a higher concentration of Compound-3 (10 μM) was incubated with liver microsomes (1 mg/mL) in the presence of NADPH (1 mM) and primary human hepatocytes at a density of 1 × 10^6 cell/mL. Samples were collected at 0 min and 60 min with the addition of ice-cold acetonitrile. After vortexing and centrifugation, the supernatant was transferred into a new tube and evaporated to dryness. The samples were then reconstituted in 100 μL of water and methanol (v/v, 9:1). An aliquot of 10 μL of reconstituted solution was injected into UPLC/Triple TOF 5600^+ MS for metabolite identification.
(§2) Identification of Compound-3 metabolites was carried out using Acquity UPLC/Triple TOF 5600^+ system. Chromatographic separation for Compound-3 and its metabolites were achieved by an Acquity UPLC HSS T3 column (100 × 2.1 mm i.d., […]; Waters Corp.) maintained at 40 °C. The mobile phase was a mixture of 0.02% formic acid in 5 mM ammonium acetate (A) and methanol (B). The gradient elution was started from 2% B and maintained for 4 min, then increased linearly to 75% B over the next 4 min and maintained for 8 min. […] The flow rate was 0.4 mL/min and the eluent was monitored by UV detection at 280 nm.
(§3) For mass detection, a Triple TOF 5600^+ mass spectrometer (AB Sciex, Framingham, MA, USA) was operated in positive ion electrospray (ES-positive) mode with the source temperature at 500 °C and scan range from m/z 100 to 1000 Da. Other parameters were set as follows: ion spray voltage, 5500 V; decluttering potential, 80 V; curtain gas, 40 psi; ion source gas 1, 55 psi; and ion source gas 2, 50 psi. Collision energies of 25 and 65 eV were used for TOF MS and product ion scans, respectively, and a collision energy spread of 20 was used in the MS/MS analysis. Information-dependent acquisition (IDA), together with real-time multiple mass defect filter, was used to trigger acquisition of MS/MS spectra.

[2] = test system: H460 tumor xenograft (non-small cell lung cancer); details: cited from earlier work
[3] = Metabolite identification by UPLC/Triple TOF MS in human hepatocytes; format: in vitro ADME; set-up: key: √: metabolites were detected by high-resolution mass spectrometry; details: Compound-3 10 μM, 1 × 10^6 cell/mL, 60 min, HRMS
Protocol: as §1, §2, §3

[4] = test system: human equilibrative transporter 1 (hENT1); details: cited from earlier work
CYP4F2 [5] = biological target: T1, CYP4F2 (Homo sapiens, UniProt P78329); assay: Reaction phenotyping with recombinant CYP4F2; format: in vitro ADME; details: recombinant CYP4F2 50 nM, 1 μM, NADPH, after 30 min incubation
T1 construct: purchased Corning Gentest
T1 sequence (P78329 5-520): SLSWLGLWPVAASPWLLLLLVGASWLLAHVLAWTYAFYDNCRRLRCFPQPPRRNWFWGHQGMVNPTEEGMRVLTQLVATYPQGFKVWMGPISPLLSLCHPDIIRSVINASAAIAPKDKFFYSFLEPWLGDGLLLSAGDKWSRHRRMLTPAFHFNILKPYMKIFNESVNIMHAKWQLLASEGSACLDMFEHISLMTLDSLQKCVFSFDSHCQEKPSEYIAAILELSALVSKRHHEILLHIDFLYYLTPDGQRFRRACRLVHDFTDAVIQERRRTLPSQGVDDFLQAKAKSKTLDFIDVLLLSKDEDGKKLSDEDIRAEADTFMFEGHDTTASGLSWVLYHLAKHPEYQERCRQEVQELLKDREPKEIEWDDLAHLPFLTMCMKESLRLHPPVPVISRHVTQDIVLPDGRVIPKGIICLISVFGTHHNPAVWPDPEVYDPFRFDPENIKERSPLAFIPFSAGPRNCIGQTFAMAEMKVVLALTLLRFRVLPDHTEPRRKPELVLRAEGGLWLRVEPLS
Protocol: Compound-3 was incubated separately with human cDNA-expressed cytochrome P450s (CYP1A2, CYP2B6, CYP2C8, CYP2C9, CYP2C19, CYP2D6, CYP3A4, CYP4A11, CYP4F2 and CYP4F3). The incubation mixtures contained individual CYP isoenzymes (50 nM), potassium phosphate buffer (100 mM, pH 7.4), NADPH (1 mM), and Compound-3 (1 µM). The final volume of the incubation mixture was 50 µL. Before the start of the incubation, reaction mixtures were warmed up at 37 °C for 10 min. The reaction was initiated with the addition of NADPH and the incubations were performed at 37 °C in a water bath. […] Control samples without NADPH but substrates were included. The samples were then centrifuged and aliquots of 10 μL of the supernatants were transferred onto LC-MS/MS for the analysis of Compound-3 and M4 (carboxylic acid) levels.
The following are available online. Figure S1. Gemcitabine Formation from Compound-3 Hydrolysis as a function of alkaline phosphatase protein concentrations. Compound-3 (1 μM) was incubated with alkaline phosphatase concentrations ranging from 0.01–0.2 mg/mL at 37 °C (n = 3). Figure S2. Metabolites of Compound-3 in human recombinant CYP4F2. Compound-3 (1 μM) was incubated with human recombinant CYP4F2 (50 nM) in the presence of NADPH at 37 °C (n = 3).

Stability in rat plasma = format: in vitro ADME; details: 1 μM, 37 °C
Protocol: For stability testing in plasma, the reaction was started with the addition of Compound-3 (1 µM). At specified time points, aliquots of 25 µL of the reaction mixtures were transferred into 100 μL ice-cold acetonitrile containing the internal standard. The samples were then centrifuged, and aliquots of 10 µL of the supernatants were transferred onto LC-MS/MS for the analysis of Compound-3 levels.

tumor = details: in vitro and in vivo testing in the preclinical setting; cited from earlier work
CYP4F2 [6] = biological target: T1, CYP4F2; assay: Formation kinetics of M4 (carboxylic acid) from Compound-3 by CYP4F2; format: in vitro ADME; details: CYP4F2 10 nM, 10 min, uncompetitive substrate inhibition equation, estimated
Protocol: To investigate the formation kinetics of carboxylic acid metabolite (M4) from Compound-3, varying concentrations of Compound-3 (0–10 µM) were incubated with 10 nM CYP4F2 and 1 mM NADPH in 100 mM phosphate buffer (pH 7.4). The reactions were carried at 37 °C for 10 min and terminated with the addition of ice-cold acetonitrile containing the internal standard. Samples were then centrifuged, and aliquots of 10 μL of the supernatants were analyzed by LC-MS/MS for M4 levels.
Kinetic parameters of Compound-3 in recombinant human CYP4F2 were calculated using Enzyme Kinetics Modules of SigmaPlot (Version 14.0, Systat Software, San Jose, CA, USA). An uncompetitive substrate inhibition equation was also used:V = (Vmax × [S])/{Km + [S] × (1 + [S]/Ki)}(2) where Ki is the disassociation constant describing the inhibitor-enzyme interaction.

CCCCCCCCCCCCCCCCCCOCCOP(=O)(O)OCC1OC(n2ccc(N)nc2=O)C(F)(F)C1O (centres unmarked) [Compound-3]
detected in matrix HLM [1]: √ | oral activity in tumor xenograft model [2]: orally active | detected in matrix Human Hepatocytes [3]: √ | cellular uptake limitation by hENT1 [4]: low propensity to be limited | disappearance of Compound-3 in the presence of CYP isozyme (CYP4F2 [5]): barely detectable | disappearance in plasma (Stability in rat plasma): did not display noticeable disappearance | antitumor activity as compared to gemcitabine itself and LY2334737 (tumor): enhanced antitumor activity | Ki (CYP4F2 [6]): 1.2 nM
